Values quoted from earlier work in US10335367B2, “Use of selected anticholinergic zwitterions” (Bodor Laboratories, Inc., priority 2015, dated 2019).
Where two headings read alike, the source gives them in different places.

Legend:
progression of myopia = settings: 2% ophthalmic gel; school-aged children

| Compound | slowing the progression of myopia (progression of myopia) | mean myopia progression at 2 years (myopia progression; 0.01% atropine) [D/year] | mean myopia progression at 2 years (myopia progression; 0.1% atropine) [D/year] | mean myopia progression at 2 years (myopia progression; 0.5% atropine) [D/year] |
| --- | --- | --- | --- | --- |
| CN1CCN(CC(=O)N2c3ccccc3C(=O)Nc3cccnc32)CC1 [Pirenzepine] | found effective | – | – | – |
| CN1[C@@H]2CC[C@H]1C[C@@H](OC(=O)C(CO)c1ccccc1)C2 (stereo partly shown) [atropine] | – | 0.24 | 0.19 | 0.15 |
